Like-named read-outs stand apart in the source and are kept apart here.
Molecular target: DPP4 (Homo sapiens, UniProt P27487)
Assay: DPP4 activity assay (DPP4 inhibitor screening assay kit, Cayman);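 further: fluorescence read at excitation 360 nm and emission 460 nm after the enzyme reaction ran 30 min at 37 °C in a 96-well plate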
Assay type: biochemical
Design: purchased Cayman Chemical, Ann Arbor, MI, USA
Details: for remaining activity at 10 µM: 0.5 h
[1] = 10 µM, control mean 100.0, Figure 1A raw data, read-out: DPP4 activity in library screen, Exp 1
[2] = 10 µM, control mean 100.0, Figure 1A raw data, read-out: DPP4 activity in library screen, Exp 2
[3] = 10 µM, control mean 100.0, Figure 1A raw data, read-out: DPP4 activity in library screen, Exp 3
[4] = 10 µM, control mean 100.0, mean of Exp 1-3, read-out: DPP4 activity in library screen, Mean
[5] = 10 µM, control mean 100.0, mean of Exp 1-3
[6] = 10 µM, control mean 100.0, Figure 1A raw data

Sequence of DPP4 (P27487 whole entry): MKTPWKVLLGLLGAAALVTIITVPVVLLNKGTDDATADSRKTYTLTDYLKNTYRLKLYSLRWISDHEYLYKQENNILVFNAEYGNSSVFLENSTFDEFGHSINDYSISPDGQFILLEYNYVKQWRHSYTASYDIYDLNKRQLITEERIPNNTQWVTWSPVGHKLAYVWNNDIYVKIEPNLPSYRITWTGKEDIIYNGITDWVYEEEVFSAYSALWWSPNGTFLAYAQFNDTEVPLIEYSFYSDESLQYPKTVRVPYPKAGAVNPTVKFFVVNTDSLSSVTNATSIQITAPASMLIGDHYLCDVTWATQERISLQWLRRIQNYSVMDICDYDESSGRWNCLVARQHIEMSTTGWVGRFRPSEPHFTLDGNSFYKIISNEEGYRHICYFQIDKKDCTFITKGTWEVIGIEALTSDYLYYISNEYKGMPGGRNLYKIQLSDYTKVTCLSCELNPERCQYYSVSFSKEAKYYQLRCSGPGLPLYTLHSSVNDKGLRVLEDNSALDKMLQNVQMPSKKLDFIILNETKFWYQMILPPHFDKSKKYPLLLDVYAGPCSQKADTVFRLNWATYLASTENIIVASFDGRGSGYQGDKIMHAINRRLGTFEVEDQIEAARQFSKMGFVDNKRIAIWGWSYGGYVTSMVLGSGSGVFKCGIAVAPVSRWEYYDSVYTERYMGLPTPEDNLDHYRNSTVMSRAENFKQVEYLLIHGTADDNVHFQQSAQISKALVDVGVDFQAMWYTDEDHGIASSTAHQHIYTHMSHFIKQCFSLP

| SMILES | remaining activity at 10 µM [1] [%] | remaining activity at 10 µM [2] [%] | remaining activity at 10 µM [3] [%] | remaining activity at 10 µM [4] [%] | also measured |
| --- | --- | --- | --- | --- | --- |
| O=c1cccc2n1C[C@@H]1CNC[C@H]2C1 [Cytisine] | – | – | – | – | remaining activity at 10 µM (read-out: DPP4 activity in library screen, Exp 1): 90.3%; remaining activity at 10 µM (read-out: DPP4 activity in library screen, Exp 2): 91%; remaining activity at 10 µM (read-out: DPP4 activity in library screen, Exp 3): 109%; remaining activity at 10 µM (read-out: DPP4 activity in library screen, Mean): 96.7% |
| OC[C@@H](O)[C@@H](O)[C@H](O)[C@H](O)CO [D-Mannitol] | 96 | 95.6 | 83.5 | 91.7 | – |
| C[C@H]1[C@@H](O)O[C@@H]2O[C@@]3(C)CC[C@H]4[C@H](C)CC[C@@H]1[C@@]24OO3 [Dihydroartemisinin (DHA), Dihydroartemisinin] | 97.1 | 91 | 88.2 | 92.1 | – |
| O=C1c2c(O)cc(O)cc2O[C@H](c2cc(O)c(O)c(O)c2)[C@H]1O [Dihydromyricetin] | 101 | 88.8 | 72.1 | 87.3 | – |
| C[C@@H]1CC[C@@]2(OC1)O[C@H]1C[C@H]3[C@@H]4CC=C5C[C@@H](O[C@@H]6O[C@H](CO)[C@@H](O[C@@H]7O[C@@H](C)[C@H](O)[C@@H](O)[C@H]7O)[C@H](O)[C@H]6O[C@@H]6O[C@@H](C)[C@H](O)[C@@H](O)[C@H]6O)CC[C@]5(C)[C@H]4CC[C@]3(C)[C@H]1[C@@H]2C [Dioscin] | 100 | 100 | 79.1 | 93.1 | – |
| COc1ccc(-c2cc(=O)c3c(O)cc(O)cc3o2)cc1O [Diosmetin] | 77.2 | 77.5 | 77.6 | 77.4 | – |
| COc1ccc(-c2cc(=O)c3c(O)cc(O[C@@H]4O[C@H](CO[C@@H]5O[C@@H](C)[C@H](O)[C@@H](O)[C@H]5O)[C@@H](O)[C@H](O)[C@H]4O)cc3o2)cc1O [Diosmin] | 66.8 | 69 | 74.6 | 70.1 | – |
| CC1(C)[C@@H](O)CC[C@]2(C)[C@H]3C(=O)C=C4[C@@H]5C[C@@](C)(C(=O)O)CC[C@]5(C)CC[C@@]4(C)[C@]3(C)CC[C@@H]12 [Enoxolone] | 84.3 | 87 | 95.5 | 88.9 | – |
| O=c1ccc2cc(O[C@@H]3O[C@H](CO)[C@@H](O)[C@H](O)[C@H]3O)c(O)cc2o1 [Esculin] | – | – | – | – | DPP4 activity in library screen, Mean [5]: auto-fluorescence |
| COc1cc(/C=C/C(=O)O)ccc1O [Ferulic Acid] | – | – | – | – | DPP4 activity in library screen, Exp 1 [6]: 97.5; DPP4 activity in library screen, Exp 2 [6]: 83.7; DPP4 activity in library screen, Exp 3 [6]: 98; DPP4 activity in library screen, Mean [5]: 93.1 |
| O=c1c(O)c(-c2ccc(O)c(O)c2)oc2cc(O)ccc12 [Fisetin] | 72.3 | 74 | 51.8 | 66 | – |
| COc1ccc(-c2coc3cc(O)ccc3c2=O)cc1 [Formononetin] | 102 | 85.5 | 108 | 98.7 | – |
| OCc1ccc(O[C@@H]2O[C@H](CO)[C@@H](O)[C@H](O)[C@H]2O)cc1 [Gastrodin] | 91 | 91.5 | 98.6 | 93.7 | – |
| CC1(C)[C@@H](O[C@H]2O[C@H](C(=O)O)[C@@H](O)[C@H](O)[C@H]2O[C@@H]2O[C@H](C(=O)O)[C@@H](O)[C@H](O)[C@H]2O)CC[C@]2(C)[C@H]3C(=O)C=C4[C@@H]5C[C@@](C)(C(=O)O)CC[C@]5(C)CC[C@@]4(C)[C@]3(C)CC[C@@H]12 [Glycyrrhizin (Glycyrrhizic Acid), Glycyrrhizin] | 137 | 78.9 | 65.2 | 93.8 | – |
| Cc1cc2c(C(C)C)c(O)c(O)c(C=O)c2c(O)c1-c1c(C)cc2c(C(C)C)c(O)c(O)c(C=O)c2c1O [Gossypol] | 54.6 | 59.8 | 51.6 | 55.3 | – |
| CN(C)Cc1c[nH]c2ccccc12 [Gramine] | 97.6 | 97.4 | 88.2 | 94.4 | – |
| Nc1nc2c(ncn2[C@@H]2O[C@H](CO)[C@@H](O)[C@H]2O)c(=O)[nH]1 [Guanosine] | 104 | 102 | 90.2 | 98.5 | – |
| Oc1cc2c(cc1O)[C@@H]1c3ccc(O)c(O)c3OC[C@]1(O)C2 [Hematoxylin] | 70.1 | 72 | 84.9 | 75.7 | – |
| COc1ccc([C@@H]2CC(=O)c3c(O)cc(O)cc3O2)cc1O [Hesperetin] | 80.8 | 106 | 78.5 | 88.4 | – |

| SMILES | remaining activity at 10 µM [1] [%] | remaining activity at 10 µM [2] [%] | remaining activity at 10 µM [3] [%] | remaining activity at 10 µM [4] [%] | also measured |
| --- | --- | --- | --- | --- | --- |
| COc1ccc([C@@H]2CC(=O)c3c(O)cc(O[C@@H]4O[C@H](CO[C@@H]5O[C@@H](C)[C@H](O)[C@@H](O)[C@H]5O)[C@@H](O)[C@H](O)[C@H]4O)cc3O2)cc1O [Hesperidin] | – | – | – | – | DPP4 activity in library screen, Exp 1 [6]: 97.2; DPP4 activity in library screen, Exp 2 [6]: 95.1; DPP4 activity in library screen, Exp 3 [6]: 85.1; DPP4 activity in library screen, Mean [5]: 92.5 |
| C=CCc1ccc(O)c(-c2ccc(O)c(CC=C)c2)c1 [Honokiol] | 106 | 94.1 | 105 | 102 | – |
| CN(C)CCc1ccc(O)cc1 [Hordenine] | 90.7 | 95.7 | 95.6 | 94 | – |
| C[C@H](CCC(=O)O)[C@H]1CC[C@H]2[C@@H]3C[C@H](O)[C@@H]4C[C@H](O)CC[C@]4(C)[C@H]3CC[C@]12C [Hyodeoxycholic acid (HDCA), Hyodeoxycholic acid] | 96.6 | 94.7 | 96.2 | 95.8 | – |
| O=c1[nH]cnc2nc[nH]c12 [Hypoxanthine] | 96.7 | 99.3 | 98.5 | 98.2 | – |
| COc1ccc(-c2oc3c(CC=C(C)C)c(O[C@@H]4O[C@H](CO)[C@@H](O)[C@H](O)[C@H]4O)cc(O)c3c(=O)c2O[C@@H]2O[C@@H](C)[C@H](O)[C@@H](O)[C@H]2O)cc1 [Icariin] | 76 | 74.5 | 78.7 | 76.4 | – |
| O=C1Nc2ccccc2/C1=C1/Nc2ccccc2C1=O [Indirubin] | 53.9 | 58.9 | 61.7 | 58.2 | – |
| O=C(O)Cc1c[nH]c2ccccc12 [Indole-3-acetic acid] | 115 | 108 | 121 | 115 | – |
| OCc1c[nH]c2ccccc12 [Indole-3-carbinol] | 103 | 92 | 88.7 | 94.6 | – |
| O=c1[nH]cnc2c1ncn2[C@@H]1O[C@H](CO)[C@@H](O)[C@H]1O [Inosine] | 95.4 | 94.1 | 102 | 97.2 | – |
| CC(C)Oc1ccc2c(=O)c(-c3ccccc3)coc2c1 [Ipriflavone (Osteofix), Ipriflavone] | 85.8 | 99.7 | 98 | 94.5 | – |
| O=C(/C=C/c1ccc(O)cc1)c1ccc(O)cc1O [Isoliquiritigenin] | – | – | 31.6 | – | – |
| O=c1c(O)c(-c2ccc(O)cc2)oc2cc(O)cc(O)c12 [Kaempferol] | 52 | 72.5 | 70.4 | 65 | – |
| c1coc(CNc2ncnc3[nH]cnc23)c1 [Kinetin] | 97.6 | 93.8 | 93 | 94.8 | – |
| C[C@@H]1O[C@@H](O)[C@H](O)[C@H](O)[C@H]1O.O [L-(+)-Rhamnose Monohydrate] | – | – | – | – | DPP4 activity in library screen, Exp 1 [6]: 92.8; DPP4 activity in library screen, Exp 2 [6]: 91.1; DPP4 activity in library screen, Exp 3 [6]: 93; DPP4 activity in library screen, Mean [5]: 92.3 |
| Br.CCN1C[C@]2(OC(=O)c3ccccc3NC(C)=O)CC[C@H](OC)[C@]34C1[C@H](C[C@H]23)[C@@]1(O)C[C@H](OC)[C@H]2C[C@@H]4[C@]1(O)[C@H]2OC [Lappaconite HBr] | – | – | – | – | DPP4 activity in library screen, Exp 1 [6]: 95.4; DPP4 activity in library screen, Exp 2 [6]: 80.2; DPP4 activity in library screen, Exp 3 [6]: 92.6; DPP4 activity in library screen, Mean [5]: 89.4 |
| CC1(C)O[C@H]2CC(=O)OC[C@]23[C@H]2CC[C@@]4(C)[C@H](c5ccoc5)OC(=O)[C@H]5O[C@]54[C@]2(C)C(=O)C[C@@H]13 [Limonin] | 104 | 106 | 91.4 | 101 | – |
| O=c1cc(-c2ccc(O)c(O)c2)oc2cc(O)cc(O)c12 [Luteolin] | 61.4 | 68.3 | 70 | 66.6 | – |
| C=CCc1ccc(O)c(-c2cc(CC=C)ccc2O)c1 [Magnolol] | 97.6 | 108 | 83.9 | 96.4 | – |

Source: publication PMC5428354, “Screening of a natural compound library identifies emodin, a natural compound from Rheum palmatum Linn that inhibits DPP4” (PeerJ, 2017)
